Test system: not given
Test: not given
Conditions: not given

Row | Compound | melting point
1 | CC(=O)OCc1ccc2oc(=O)c(C(=O)Oc3cc([N+](=O)[O-])ccc3[N+](=O)[O-])cc2c1 | 162 to 164 °C
2 | Cc1ccc(OC(=O)c2cc3cc(CCl)ccc3oc2=O)c([N+](=O)[O-])n1 [Ic′″8, 6-methyl-2-nitro-3-pyridyl 6-chloromethyl-2-oxo-2H-1-benzopyran-3-carboxylate] | 203 to 208 °C
3 | Cc1cncc(OC(=O)c2cc3cc(CCl)ccc3oc2=O)c1 [Ic′″2, 5-methyl-3-pyridyl 6-chloromethyl-2-oxo-2H-1-benzopyran-3-carboxylate] | 211 °C (dec.)
4 | O=C(Oc1cc2ccccc2cn1)c1cc2ccccc2oc1=O [Ia10, 3-isoquinolyl 2-oxo-2H-1-benzopyran-3-carboxylate] | 160 to 163 °C
5 | Cc1ccc2oc(=O)c(C(=O)Oc3cc([N+](=O)[O-])ccc3[N+](=O)[O-])cc2c1 | 225 to 229 °C
6 | CC(=O)OCc1ccc2oc(=O)c(C(=O)Oc3cc(Cl)cc(Cl)c3)cc2c1 [Id13, 3,5-dichlorophenyl 6-acetoxymethyl-2-oxo-2H-1-benzopyran-3-carboxylate] | 146 to 150 °C
7 | O=C(Nc1cccnc1Cl)c1cc2cc(CCl)ccc2oc1=O [II2, N-(2-chloro-3-pyridyl)-6-chloromethyl-2-oxo-2H-1-benzopyran-3-carboxamide] | 211 °C (dec.)
8 | O=C(Oc1cccnc1Br)c1cc2cc(CCl)ccc2oc1=O [Ic′″6, 2-bromo-3-pyridyl 6-chloromethyl-2-oxo-2H-1-benzopyran-3-carboxylate] | 197 to 199 °C
9 | O=C(Oc1cccnc1Cl)c1cc2cc(CCl)ccc2oc1=O [Ic′″4, 2-chloro-3-pyridyl 6-chloromethyl-2-oxo-2H-1-benzopyran-3-carboxylate] | 198 to 200 °C
10 | O=C(Oc1cccc2cccnc12)c1cc2cc(CCl)ccc2oc1=O [Ic″″1, 8-quinolyl 6-chloromethyl-2-oxo-2H-1-benzopyran-3-carboxylate] | 127 °C (dec.)
11 | Cc1ccc2oc(=O)c(C(=O)Oc3cc(Cl)ccc3Cl)cc2c1 [Ib3, 2,5-dichlorophenyl 6-methyl-2-oxo-2H-1-benzopyran-3-carboxylate] | 175 to 179 °C
12 | O=C(Oc1cc(F)ccc1F)c1cc2ccccc2oc1=O [Ia5, 2,5-difluorophenyl 2-oxo-2H-1-benzopyran-3-carboxylate] | 134 to 137 °C
13 | O=C(OC1CCCCCCC1)c1cc2cc(CCl)ccc2oc1=O [Ic′3, cyclooctyl 6-chloromethyl-2-oxo-2H-1-benzopyran-3-carboxylate] | 169 to 170 °C
14 | CC(=O)OCc1ccc2oc(=O)c(C(=O)Oc3cc(Cl)ccc3Cl)cc2c1 [Id11, 2,5-dichlorophenyl 6-acetoxymethyl-2-oxo-2H-1-benzopyran-3-carboxylate] | 168 to 171 °C
15 | O=C(Oc1cc(F)ccc1[N+](=O)[O-])c1cc2ccccc2oc1=O [Ia7, 5-fluoro-2-nitrophenyl 2-oxo-2H-1-benzopyran-3-carboxylate] | 219 to 223 °C
16 | O=C(Oc1ccc2ncccc2c1)c1cc2cc(CCl)ccc2oc1=O [Ic″″2, 6-quinolyl 6-chloromethyl-2-oxo-2H-1-benzopyran-3-carboxylate] | 205 to 208 °C
17 | CC(=O)OCc1ccc2oc(=O)c(C(=O)Oc3cc(F)ccc3Br)cc2c1 [Id14, 2-bromo-5-fluorophenyl 6-acetoxymethyl-2-oxo-2H-1-benzopyran-3-carboxylate] | 148 to 150 °C
18 | O=C(OC1CCCCCC1)c1cc2cc(CCl)ccc2oc1=O [Ic′2, cycloheptyl 6-chloromethyl-2-oxo-2H-1-benzopyran-3-carboxylate] | 171 to 174 °C
19 | Cc1ccc2oc(=O)c(C(=O)Oc3cccc4cnccc34)cc2c1 [Ib8, 5-isoquinolyl 6-methyl-2-oxo-2H-1-benzopyran-3-carboxylate] | 188 to 190 °C

Row | Compound | melting point
20 | Cc1ccc2oc(=O)c(C(=O)Oc3cc(F)ccc3[N+](=O)[O-])cc2c1 [Ib6, 5-fluoro-2-nitrophenyl 6-methyl-2-oxo-2H-1-benzopyran-3-carboxylate] | 224 to 226 °C
21 | O=C(OC1CCCCCCCCCCC1)c1cc2cc(CCl)ccc2oc1=O [Ic′4, cyclododecyl 6-chloromethyl-2-oxo-2H-1-benzopyran-3-carboxylate] | 164 to 167 °C
22 | CC(=O)OCc1ccc2oc(=O)c(C(=O)Oc3cc(F)ccc3[N+](=O)[O-])cc2c1 [Id15, 5-fluoro-2-nitrophenyl 6-acetoxymethyl-2-oxo-2H-1-benzopyran-3-carboxylate] | 157 to 161 °C
23 | O=C(Oc1cc(F)ccc1[N+](=O)[O-])c1cc2cc(CCl)ccc2oc1=O [Ic″10, 5-fluoro-2-nitrophenyl 6-chloromethyl-2-oxo-2H-1-benzopyran-3-carboxylate] | 205 to 208 °C
24 | O=C(Oc1cc([N+](=O)[O-])ccc1[N+](=O)[O-])c1cc2ccccc2oc1=O | 223 to 225 °C
25 | O=C(Nc1cccnc1)c1cc2cc(CCl)ccc2oc1=O [II1, N-(3-pyridyl)-6-chloromethyl-2-oxo-2H-1-benzopyran-3-carboxamide] | 270 °C (dec.)
26 | O=C(Oc1cc([N+](=O)[O-])ccc1[N+](=O)[O-])c1cc2cc(CCl)ccc2oc1=O | 153 to 157 °C
27 | O=C(Oc1cc(F)ccc1Br)c1cc2cc(CCl)ccc2oc1=O [Ic″9, 2-bromo-5-fluorophenyl 6-chloromethyl-2-oxo-2H-1-benzopyran-3-carboxylate] | 203 to 205 °C
28 | CCC(=O)OCc1ccc2oc(=O)c(C(=O)Oc3ccccc3)cc2c1 [Id5, phenyl 6-propionyloxymethyl-2-oxo-2H-1-benzopyran-3-carboxylate] | 186 to 187 °C
29 | O=C(NSc1ncccc1[N+](=O)[O-])c1cc2cc(CCl)ccc2oc1=O [IV1, N-[(3-nitro-2-pyridyl)sulfanyl]-6-chloromethyl-2-oxo-2H-1-benzopyran-3-carboxamide] | 252 to 254 °C
30 | Cc1ccc(OC(=O)c2cc3cc(CCl)ccc3oc2=O)cn1 [Ic′″3, 6-methyl-3-pyridyl 6-chloromethyl-2-oxo-2H-1-benzopyran-3-carboxylate] | 205 to 208 °C
31 | O=C(OC1CCCCC1)c1cc2cc(CCl)ccc2oc1=O [Ic′1, cyclohexyl 6-chloromethyl-2-oxo-2H-1-benzopyran-3-carboxylate] | 185 to 186 °C
32 | O=C(Oc1cccc2cnccc12)c1cc2ccccc2oc1=O [Ia9, 5-isoquinolyl 2-oxo-2H-1-benzopyran-3-carboxylate] | 190 to 193 °C
33 | Cc1ccc2oc(=O)c(C(=O)Oc3cc(F)ccc3F)cc2c1 [Ib4, 2,5-difluorophenyl 6-methyl-2-oxo-2H-1-benzopyran-3-carboxylate] | 155 to 159 °C
34 | COc1ccc(NC(=O)c2cc3cc(CCl)ccc3oc2=O)cn1 [II3, N-(6-methoxy-3-pyridyl)-6-chloromethyl-2-oxo-2H-1-benzopyran-3-carboxamide] | 225 °C (dec.)
35 | Cc1ccc2oc(=O)c(C(=O)Oc3cc(F)ccc3Br)cc2c1 [Ib5, 2-bromo-5-fluorophenyl 6-methyl-2-oxo-2H-1-benzopyran-3-carboxylate] | 187 to 190 °C
36 | O=C(Oc1cc(F)ccc1Br)c1cc2ccccc2oc1=O [Ia6, 2-bromo-5-fluorophenyl 2-oxo-2H-1-benzopyran-3-carboxylate] | 173 to 175 °C
37 | O=C(Oc1cccnc1[N+](=O)[O-])c1cc2cc(CCl)ccc2oc1=O [Ic′″7, 2-nitro-3-pyridyl 6-chloromethyl-2-oxo-2H-1-benzopyran-3-carboxylate] | 190 to 193 °C
38 | CC(=O)OCc1ccc2oc(=O)c(C(=O)Oc3cc(F)ccc3F)cc2c1 [Id12, 2,5-difluorophenyl 6-acetoxymethyl-2-oxo-2H-1-benzopyran-3-carboxylate] | 137 to 139 °C

Biological target: T1, human thrombin (Homo sapiens, UniProt P00734)
T1 construct: human thrombin
Test: Inactivation kinetics of human thrombin (chromogenic substrate H-D-Phe-Pip-Arg-pNA)
Assay type: biochemical
Conditions: TABLE 5, phenyl esters; 25° C., pH 7.5; inactivation phase; N.I. = non-inactivator
Protocol: (§1) The inactivating or inhibitory properties of the coumarin derivatives were tested with respect to a certain number of enzymes: human leukocyte elastase, bovine α-chymotrypsin, human thrombin and bovine trypsin. The kinetic measurements were taken at 25° C. in the following buffers: 0.1 M Hepes, 0.5 M NaCl, 0.01% Tween 80, pH 8.0 (human leukocyte elastase); 0.025 M NaH2PO4, 0.05 M KCl, pH 7.5 (α-chymotrypsin); 0.01 M Tris, 0.01 M Hepes, 0.1 M NaCl, 0.1% PEG-6000, pH 7.5 (human thrombin); 0.1 M Tris, 0.01 M CaCl2, pH 7.5 (bovine trypsin). The chromogenic substrates used to determine the activity of the enzymes are: MeOSuc-Ala2-Pro-Val-pNA (human leukocyte elastase); Suc-Ala2-Pro-Phe-pNA (α-chymotrypsin); H-D-Phe-Pip-Arg-pNA (human thrombin); N-benzoyl-Arg-pNA (bovine trypsin) (pNA: para-nitroaniline).
(§2) The interaction of a suicide substrate with a serine protease corresponds to the minimum reaction scheme described in equation 1 in which E represents the enzyme, I represents the inhibitor, E-I represents the acyl-enzyme and E-I′ represents the inactivated enzyme [Silverman R. B., 1988, “Mechanism-based enzyme inactivation: chemistry and enzymology”, volume 1 CRC Press, Boca Raton, Fla.]: [drawing 76]
(§3) When k4 is small compared to k3, equation 1 can be simplified (equation 2, [Daniels et al., 1983, J. Biol. Chem., 258: 15046-15053]): [drawing 77]
(§4) Considering the first instants of the reaction, the system reduces to a simplified equation of the form of equation 2.
(§5) The kinetic constants characterizing the inactivation of the enzymes with the coumarin derivatives were determined using either the conventional sampling method (or batchwise method) or a method placing the inhibitor and the substrate in competition (or continuous method); these methods are described by Pochet et al. [Pochet et al., 1996, J. Med. Chem., 39: 2579-2585].
(§6) The inactivation of serine proteaaes with the coumarin derivatives is thus characterized by the following constants (see Eq. 2):
(§7) KI: apparent dissociation constant of an enzyme-inhibitor complex located upstream of ki
(§8) ki: first-order rate constant for inactivation at infinite inhibitor concentration
(§9) ki/KI: index of the overall inactivating efficacy of the inhibitor.

Row | Compound | Ki/KI or kobs/[I], Thrombin
39 | O=C(Oc1cc(F)ccc1F)c1cc2ccccc2oc1=O [Ia5, 2,5-difluorophenyl 2-oxo-2H-1-benzopyran-3-carboxylate] | N.I.

Same assay, conditions: TABLE 5, phenyl esters; 25° C., pH 7.5; inactivation phase; N.I. = non-inactivator; read-out: Ki/KI or kobs/[I], Thrombin

Row | Compound | kinact/KI [M⁻¹ s⁻¹]
40 | CC(=O)OCc1ccc2oc(=O)c(C(=O)Oc3cc(Cl)ccc3Cl)cc2c1 [Id11, 2,5-dichlorophenyl 6-acetoxymethyl-2-oxo-2H-1-benzopyran-3-carboxylate] | 500
41 | CC(=O)OCc1ccc2oc(=O)c(C(=O)Oc3cc(F)ccc3F)cc2c1 [Id12, 2,5-difluorophenyl 6-acetoxymethyl-2-oxo-2H-1-benzopyran-3-carboxylate] | 150

Biological target: T2, human leukocyte elastase (Homo sapiens, UniProt P08246)
T2 sequence (P08246 30-247 limits assumed): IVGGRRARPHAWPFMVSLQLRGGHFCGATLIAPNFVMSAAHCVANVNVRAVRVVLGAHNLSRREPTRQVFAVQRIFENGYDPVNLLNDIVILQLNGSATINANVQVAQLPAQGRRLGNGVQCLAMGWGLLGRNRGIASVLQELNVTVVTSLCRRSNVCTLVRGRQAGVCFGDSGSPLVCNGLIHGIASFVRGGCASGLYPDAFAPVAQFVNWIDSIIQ
Test: Inactivation kinetics of human leukocyte elastase (chromogenic substrate MeOSuc-Ala2-Pro-Val-pNA)
Assay type: biochemical
Conditions: TABLE 5, phenyl esters; 25° C., pH 8.0; inactivation phase; N.I. = non-inactivator; read-out: Ki/KI or kobs/[I], HLE
Protocol: as §1, §2, §3, §4, §5, §6, §7, §8, §9

Row | Compound | kinact/KI [M⁻¹ s⁻¹]
42 | Cc1ccc2oc(=O)c(C(=O)Oc3cc(Cl)ccc3Cl)cc2c1 [Ib3, 2,5-dichlorophenyl 6-methyl-2-oxo-2H-1-benzopyran-3-carboxylate] | 3000
